Data published in US6603046B1, “Bis-aromatic a,β-unsaturated ketones” (Lica Pharmaceuticals A/S, priority 1992, dated 2003).
Converted amounts (≈) assume the structure as drawn.

Legend:
[1] = test system: L. major promastigotes; assay: In vitro growth of L. major promastigotes, 3H-thymidine uptake (Example 4); format: cell-based, Leishmania major; details: in vitro L. major growth test
[2] = test system: chloroquine resistant P. falciparum DD2 strain; assay: In vitro growth of P. falciparum DD2, 3H-hypoxanthine uptake (Example 15); format: cell-based, Plasmodium falciparum; details: title: percentage inhibition of 3H-hypoxanthine uptake
[3] = Rate of the reaction between N-acetyl-L-cysteine and chalcones, HPLC; format: physicochemical; details: methanol-water-potassium phosphate buffer pH 7.5, 30° C.; first order
Text: The decline of the chalcone concentration was followed by HPLC. The following experimental setups were used: 1. […] 2. […] This system was used i the case of 4′-methoxychalcone. The rate of decline of the chalcone concentration was followed by HPLC. The rate constant was estimated using Grafit and assuming that the reaction followed first order kinetic; i.e.: [c]=[c0]exp(−kt) where [c] is the concentration of the chalcone in question at time t, [c0] is the concentration of the chalcone in question at time zero, k is the rate constant, and t the time.

[4] = test system: chloroquine-sensitive P. falciparum 3D7A strain; assay: In vitro growth of P. falciparum 3D7A, 3H-hypoxanthine uptake (Example 15); format: cell-based, Plasmodium falciparum; details: for Percentage inhibition of 3H-hypoxanthine uptake (mean ± SEM): title: percentage inhibition of 3H-hypoxanthine uptake
[5] = test system: P. falciparum; assay: P. falciparum growth in vitro (Table 14.1, strain not stated); format: cell-based; details: Plasmodium falciparum, read-out: inhibition of malaria parasites (middle figure) (converted)
Method: The P. falciparum experimental setup was as described in Example 15.
Testing of the effect of drugs and serum on the in vitro growth of the parasites. The experiments in which compounds were tested for their ability to inhibit parasite growth were performed by a modification of the method originally described by Jensen et al. (1982). Fifty μl of parasitized erythrocytes (parasitemia approximately 1%) in a concentration of 5×10^8/ml and 50 μl of RPMI medium containing different concentrations of the test compound was added to each well of a 96 well flat-bottomed microtiter plate (Nunc). The cultures were then incubated for 48 hours, 24 hours before termination of the culture adding 20 μl of 3-H-hypoxanthine (40 uCi/ml) (New England Nuclear, Boston, Mass., USA) was added to each well. The cultures were then harvested onto glass fiber filters using a Skatron cell harvester (Skatron, Lierbyen, Norway), and the incorporation of 3-H-hypoxanthine into the DNA of dividing parasites was determined by liquid scintillation spectrometry.

[6] = test system: L. major promastigotes; assay: L. major promastigotes from 4-days cultures, 3H-thymidine uptake (Examples 5, 14); format: cell-based, Leishmania major; details: Leishmania major, Table 14.1, read-out: percentage inhibition of promastigotes (upper figure)
Summary of the method: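 Promastigotes harvested on day 4 of culture were exposed to compound, then pulsed with 100 μC 3H-thymidine for a further 18 h. Cells were collected on filter paper, washed, and incorporated radioactivity counted by scintillation.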

[7] = test system: human lymphocytes; assay: Lymphocyte Proliferation Assay, 3H-thymidine incorporation (Example 13); details: Homo sapiens, Lymphocyte, read-out: inhibition of lymphocytes (lower figure)

With `CC(C)=CCc1c(O)ccc(C(=O)/C=C/c2cc(O)c3c(c2)C=CC(C)(C)O3)c1O` [(A)] as the compound, how does the “antiparasitic effect in bioassay-guided fractionation” value [1] read?
The value was “Only the latter compound showed major antiparasitic effects”.

For `C=CCOc1ccc(C(=O)/C=C/c2cccc(OC)c2OC)cc1` [2,3-Dimethoxy-4′-allyloxychalcone, 2,3-dimethoxy-4′-prop-2-enyloxychalcone], which melting point is on record?
Its melting point is 98 to 99 °C.

What about the “Growth in % of control (mean ± SEM)” value ([2]; 0.5 μg/ml) of the same compound?
The value was 28.5 ± 9.6%.

What about the “Growth in % of control (mean ± SEM)” value ([2]; 1 μg/ml) of the same compound?
Its value is 29.6 ± 10.9%.

And the “Growth in % of control (mean ± SEM)” value ([2]; 5 μg/ml)?
The value was 22.2 ± 10.1%.

And the “Growth in % of control (mean ± SEM)” value ([2]; 10 μg/ml)?
The value was 49.9 ± 9.1%.

Which “antiparasitic effect in bioassay-guided fractionation” value [1] does the source give for `CC(C)=CCc1cc(/C=C/C(=O)c2ccc(O)c(CC=C(C)C)c2O)ccc1O` [4,2′,4′-trihydroxy-3,3′-di-(3-methylbut-2-enyl)chalcone] here?
Its value is “showed major antiparasitic effects”.

With `O=C(/C=C/c1ccc(O)cc1)c1ccc(O)cc1` [drawing 105] as the compound, how does the “Estimated rate constant k” value [3] read?
The value was 0.0020 min⁻¹.

What does the source list for `COc1ccc(/C=C/C(=O)c2ccc(O)cc2)cc1OC` [3,4-Dimethoxy-4′-hydroxychalcone, 3,4-dimethoxy-4′-hydroxychalcone]?
melting point: 193 to 198 °C; Growth in % of control (mean ± SEM) ([2]; 0.5 μg/ml): 9.3 ± 9.2%; Growth in % of control (mean ± SEM) ([2]; 1 μg/ml): 7.1 ± 8.1%; Growth in % of control (mean ± SEM) ([2]; 5 μg/ml): 48.5 ± 8.4%; Growth in % of control (mean ± SEM) ([2]; 10 μg/ml): 82.6 ± 4.7%

What does the source list for `O=C(/C=C/c1ccccc1)c1ccc(O)cc1` [4′-Hydroxychalcone, 4′-hydroxychalcone]?
IC50 ([4]; Plasmodium falciparum, read-out: concentration in which growth was retarded by 50%): 1 to 5 µg/mL (≈ 4.46 to 22.3 µM); Percentage inhibition of 3H-hypoxanthine uptake (mean ± SEM) ([4]; 0.5 μg/ml): 29.9 ± 10.7%; Percentage inhibition of 3H-hypoxanthine uptake (mean ± SEM) ([4]; 1 μg/ml): 40.5 ± 11.1%; Percentage inhibition of 3H-hypoxanthine uptake (mean ± SEM) ([4]; 5 μg/ml): 64.2 ± 8.5%; Percentage inhibition of 3H-hypoxanthine uptake (mean ± SEM) ([4]; 10 μg/ml): 95.5 ± 1.1%; inhibition at 0.5 µg/mL ([5]; 0.5 μg/ml): 29.9%; inhibition at 1 µg/mL ([5]; 1 μg/ml): 40.5%; inhibition at 5 µg/mL ([5]; 5 μg/ml): 64.3%; inhibition at 10 µg/mL ([5]; 10 μg/ml): 95.6%; inhibition at 0.5 µg/mL ([6]; 0.5 μg/ml): 26.4 ± 6.5%; inhibition at 1 µg/mL ([6]; 1 μg/ml): 37.3 ± 13.6%; inhibition at 5 µg/mL ([6]; 5 μg/ml): 73.4 ± 15.3%; inhibition at 10 µg/mL ([6]; 10 μg/ml): 90.1 ± 6.5%; inhibition at 1 µg/mL [7]: 3.6%; inhibition at 5 µg/mL [7]: 10.2%; inhibition at 10 µg/mL [7]: 17%
